The structures appear in SMILES notation.

29 compounds from patent US12037344B2, “NLRP3 modulators” (INNATE TUMOR IMMUNITY, INC., priority 2018, dated 2024) can be followed below.

One assay deals with THP-1 cells. Briefly: Measurement of IL-1β production, hTRF protocol (second alternative procedure), THP-1 cells. It is filed as cell-based, human. The following applies: Homo sapiens, THP-1, IL-1β production, human; read-out: NLRP3 hILIB EC50. The procedure, abridged: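 THP-1 cells differentiated overnight with 50 ng/ml PMA, then plated at 50,000 cells/well in RPMI with 2% FBS onto serial compound dilutions (top final concentration 10 μM) for 2 hours at 37° C. Supernatant IL-1β measured by hTRF (antibodies at 1:40, overnight at 4° C), read at 665/615 nm against a standard curve.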

A further assay has as its target T1, TLR7 (Homo sapiens, UniProt Q9NYK1).
T1 construct: human HEK-Blue cells co-expressing a TLR7 or TLR8 gene
T1 sequence (Q9NYK1 27-1049): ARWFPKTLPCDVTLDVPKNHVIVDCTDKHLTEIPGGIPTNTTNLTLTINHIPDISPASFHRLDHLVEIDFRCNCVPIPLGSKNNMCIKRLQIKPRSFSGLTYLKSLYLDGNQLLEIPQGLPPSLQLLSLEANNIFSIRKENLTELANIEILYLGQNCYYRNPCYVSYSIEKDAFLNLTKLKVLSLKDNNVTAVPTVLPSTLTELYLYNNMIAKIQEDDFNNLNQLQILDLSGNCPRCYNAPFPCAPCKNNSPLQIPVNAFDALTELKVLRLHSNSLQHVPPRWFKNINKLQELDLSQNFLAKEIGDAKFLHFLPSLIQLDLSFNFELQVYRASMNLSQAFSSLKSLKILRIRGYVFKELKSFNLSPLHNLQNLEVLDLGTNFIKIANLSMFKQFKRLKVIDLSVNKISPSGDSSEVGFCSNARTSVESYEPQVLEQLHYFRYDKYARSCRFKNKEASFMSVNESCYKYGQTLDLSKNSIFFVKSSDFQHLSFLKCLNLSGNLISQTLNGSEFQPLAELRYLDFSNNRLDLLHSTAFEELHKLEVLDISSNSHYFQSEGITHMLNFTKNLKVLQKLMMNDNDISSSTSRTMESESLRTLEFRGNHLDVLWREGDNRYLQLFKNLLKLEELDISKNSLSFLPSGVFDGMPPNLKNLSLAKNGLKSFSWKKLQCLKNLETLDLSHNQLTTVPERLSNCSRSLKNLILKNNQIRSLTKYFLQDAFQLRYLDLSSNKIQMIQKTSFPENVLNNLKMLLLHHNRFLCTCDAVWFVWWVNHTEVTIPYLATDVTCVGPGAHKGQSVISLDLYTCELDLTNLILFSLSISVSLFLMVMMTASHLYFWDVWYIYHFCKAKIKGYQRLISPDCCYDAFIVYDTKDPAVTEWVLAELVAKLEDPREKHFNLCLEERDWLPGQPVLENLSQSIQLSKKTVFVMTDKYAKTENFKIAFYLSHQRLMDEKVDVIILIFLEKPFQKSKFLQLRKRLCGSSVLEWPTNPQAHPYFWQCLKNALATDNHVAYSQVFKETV
Put plainly: In vitro human TLR7 binding reporter assay (HEK-Blue, NF-kB/AP1-inducible SEAP). In kind it is cell-based. The conditions noted are these: activity range class, read-out: TLR7 Agonist EC50. In outline: (§1)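 EC50s come from NF-kB/AP1-driven SEAP secretion in HEK-Blue cells expressing TLR7 or TLR8, measured with Quanti-Blue after an 18 h compound incubation. Maximal response is defined by a 50 μM reference standard.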
(In general: A reporter such as luciferase makes a cellular process visible.)

The next assay deals with T2, TLR8 (Homo sapiens, UniProt Q9NR97).
T2 construct: human HEK-Blue cells co-expressing a TLR7 or TLR8 gene
T2 sequence (Q9NR97 27-1041): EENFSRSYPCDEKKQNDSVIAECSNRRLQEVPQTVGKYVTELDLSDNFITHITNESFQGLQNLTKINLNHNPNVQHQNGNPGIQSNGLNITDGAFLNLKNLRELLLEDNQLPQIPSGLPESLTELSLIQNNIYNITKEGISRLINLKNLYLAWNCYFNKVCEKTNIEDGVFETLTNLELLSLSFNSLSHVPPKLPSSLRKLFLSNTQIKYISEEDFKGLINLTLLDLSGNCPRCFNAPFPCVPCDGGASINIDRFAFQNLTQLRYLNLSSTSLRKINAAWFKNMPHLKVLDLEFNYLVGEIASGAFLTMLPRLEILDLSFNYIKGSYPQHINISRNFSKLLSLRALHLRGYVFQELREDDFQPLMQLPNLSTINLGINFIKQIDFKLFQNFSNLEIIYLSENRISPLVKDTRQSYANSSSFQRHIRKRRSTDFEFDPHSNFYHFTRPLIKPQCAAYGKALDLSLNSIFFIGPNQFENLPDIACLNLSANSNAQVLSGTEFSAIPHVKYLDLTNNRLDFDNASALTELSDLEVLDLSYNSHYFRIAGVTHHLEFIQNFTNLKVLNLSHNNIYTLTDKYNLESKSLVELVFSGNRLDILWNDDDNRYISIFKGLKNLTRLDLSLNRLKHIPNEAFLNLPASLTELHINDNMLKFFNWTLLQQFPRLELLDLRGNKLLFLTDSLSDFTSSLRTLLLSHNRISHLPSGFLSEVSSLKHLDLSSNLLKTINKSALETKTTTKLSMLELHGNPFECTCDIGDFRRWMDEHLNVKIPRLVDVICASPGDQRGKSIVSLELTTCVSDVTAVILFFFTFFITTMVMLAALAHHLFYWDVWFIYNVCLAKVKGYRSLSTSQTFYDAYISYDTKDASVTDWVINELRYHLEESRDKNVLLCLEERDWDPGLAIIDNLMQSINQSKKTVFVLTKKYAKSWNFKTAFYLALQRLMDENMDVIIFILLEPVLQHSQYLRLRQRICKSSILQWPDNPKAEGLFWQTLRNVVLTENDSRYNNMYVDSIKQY
Put plainly: In vitro human TLR8 binding reporter assay (HEK-Blue, NF-kB/AP1-inducible SEAP). It is filed as cell-based. The conditions noted are these: activity range class, read-out: TLR8 Agonist EC50. In outline:
as §1

Turning to `Cc1nc(Cn2cc3c(n2)c(N)nc2cc(-c4cc[nH]n4)ccc23)no1` [Example 174], the EC50 – broadly, the midpoint of the concentration-response curve – with THP-1 cells was 0.23 µM; on TLR7, 1 to 20 µM; at TLR8, 20 to 100 µM.

For `Nc1nc2cc(-c3cc[nH]n3)ccc2c2cn(CCc3c[nH]cn3)nc12` [Example 175], the EC50 with THP-1 cells was 0.29 µM; on TLR7, over 100 µM; on TLR8, over 100 µM.

In the case of `Nc1nc2cc(-c3cc[nH]n3)ccc2c2cn(CCNC(=O)c3coc(Cl)n3)nc12` [Example 176], the EC50 is 0.05 µM with THP-1 cells, 20 to 100 µM on TLR7 and 20 to 100 µM at TLR8.

Consider `Nc1nc2cc(-c3cc[nH]n3)ccc2c2cn(CCNC(=O)[C@H]3CCCO3)nc12` [Example 177], for which the EC50 is 2.23 µM in the assay with THP-1 cells, over 100 µM at TLR7 and over 100 µM on TLR8.

As to `Nc1nc2cc(-c3cc[nH]n3)ccc2c2cn(CCNC(=O)COCC(F)(F)F)nc12` [Example 178], the EC50 with THP-1 cells was 1.44 µM; at TLR7, over 100 µM; on TLR8 it was over 100 µM.

In the case of `Nc1nc2cc(-c3cc[nH]n3)ccc2c2cn(CCNC(=O)CC(F)(F)F)nc12` [Example 181], the concentration for a half-maximal effect (EC50) in the assay on THP-1 cells is 6.53 µM; at TLR7, over 100 µM; at TLR8, over 100 µM.

For the compound `N#CC1(C(=O)NCCn2cc3c(n2)c(N)nc2cc(-c4cc[nH]n4)ccc23)CC1` [Example 182], the EC50 with THP-1 cells is 1.27 µM; on TLR7, over 100 µM; on TLR8, over 100 µM.

Take `Cc1nc(C(=O)NCCn2cc3c(n2)c(N)nc2cc(-n4cccn4)ccc23)co1` [Example 183]: the concentration for a half-maximal effect (EC50) in the assay on THP-1 cells is 0.11 µM; on TLR7, over 100 µM; at TLR8 it was 20 to 100 µM.

On to `COCCn1cc2c(n1)c(N)nc1cc(-c3ccn[nH]3)ccc12` [Example 185], for which the EC50 in the assay on THP-1 cells was 0.21 µM; on TLR7 it was 1 to 20 µM; at TLR8 it was over 100 µM.

`CCCCn1cc2c(n1)c(N)nc1cc(-c3ccn[nH]3)ccc12` [Example 186]: the half-maximal effective concentration (EC50) was 0.21 µM in the assay on THP-1 cells, 1 to 20 µM at TLR7 and over 100 µM at TLR8.

For `CCCn1cc2c(n1)c(N)nc1cc(-c3ccn[nH]3)ccc12` [Example 187], the results for the EC50 in the assay with THP-1 cells, on TLR7 and at TLR8 were 0.22 µM, over 100 µM and over 100 µM, respectively.

With `CCn1cc2c(n1)c(N)nc1cc(-c3ccn[nH]3)ccc12` [Example 188], the EC50 with THP-1 cells is 0.21 µM; on TLR7, over 100 µM; on TLR8, over 100 µM.

For `NC(=O)CCn1cc2c(n1)c(N)nc1cc(-c3ccn[nH]3)ccc12` [Example 189], the EC50 is 0.59 µM in the assay with THP-1 cells, over 100 µM on TLR7 and over 100 µM on TLR8.

With `CCOCCn1cc2c(n1)c(N)nc1cc(-c3ccn[nH]3)ccc12` [Example 190], the EC50 in the assay with THP-1 cells is 0.22 µM; at TLR7 it was over 100 µM; at TLR8, over 100 µM.

Take `NC(=O)Cn1cc2c(n1)c(N)nc1cc(-c3ccn[nH]3)ccc12` [Example 191]: the EC50 with THP-1 cells was 7.19 µM; on TLR7, over 100 µM; at TLR8, over 100 µM.

Regarding `Nc1nc2cc(-c3ccn[nH]3)ccc2c2cn(CC(F)F)nc12` [Example 192], the EC50 in the assay on THP-1 cells is 0.09 µM; at TLR7, over 100 µM; on TLR8 it was over 100 µM.

With `Nc1nc2cc(-c3ccn[nH]3)ccc2c2cn(CCF)nc12` [Example 193], the EC50 is 0.24 µM with THP-1 cells, 20 to 100 µM on TLR7 and 20 to 100 µM on TLR8.

For `Nc1nc2cc(-c3cc[nH]n3)ccc2c2cn(CCNc3ccccn3)nc12` [Example 194, 7-(1H-pyrazol-3-yl)-2-(2-(pyridin-2-ylamino)ethyl)-2H-pyrazolo[3,4-c]quinolin-4-amine], the EC50 with THP-1 cells is 0.22 µM; at TLR7, over 100 µM; at TLR8, over 100 µM.

For `Nc1nc2cc(-c3cc[nH]n3)c(Cl)cc2c2cn(CCNC(=O)c3ccc(F)cn3)nc12` [Example 195, N-(2-(4-amino-8-chloro-7-(1H-pyrazol-3-yl)-2H-pyrazolo[3,4-c]quinolin-2-yl)ethyl)-5-fluoropicolinamide], the EC50 in the assay on THP-1 cells was 2.15 µM; at TLR7, over 100 µM; at TLR8 it was 20 to 100 µM.

Take `Nc1nc2cc(-c3cc[nH]n3)ccc2c2nn(CCNC(=O)c3ccc(F)cn3)cc12` [Example 196]: the EC50 was 0.18 µM in the assay with THP-1 cells, over 100 µM at TLR7 and over 100 µM on TLR8.

For the compound `Nc1nc2cc(-c3cc[nH]n3)ccc2c2nn(CCNC(=O)c3cc(Cl)ccn3)cc12` [Example 197], the EC50 with THP-1 cells was 0.25 µM; on TLR7, over 100 µM; on TLR8, over 100 µM.

Regarding `Cc1nc(C(=O)NCCn2cc3c(N)nc4cc(-c5cc[nH]n5)ccc4c3n2)co1` [Example 198], the EC50 is 0.11 µM in the assay with THP-1 cells, over 100 µM on TLR7 and over 100 µM at TLR8.

Regarding `Nc1nc2cc(-c3cc[nH]n3)ccc2c2nn(CCNC(=O)C3CCCCO3)cc12` (stereo not drawn) [Example 199], the half-maximal effective concentration (EC50) was 4.44 µM in the assay with THP-1 cells, over 100 µM on TLR7 and over 100 µM at TLR8.

As to `Nc1nc2cc(-c3cc[nH]n3)ccc2c2nn(CCNC(=O)c3ccccc3)cc12` [Example 200], the half-maximal effective concentration (EC50) in the assay on THP-1 cells is 0.57 µM; at TLR7, over 100 µM; at TLR8, over 100 µM.

Take `Nc1nc2cc(-c3cc[nH]n3)ccc2c2nn(CCNC(=O)c3cnccn3)cc12` [Example 201]: the EC50 in the assay with THP-1 cells was 0.48 µM; on TLR7, over 100 µM; at TLR8, over 100 µM.

Take `COc1ccc(C(=O)NCCn2cc3c(N)nc4cc(-c5cc[nH]n5)ccc4c3n2)nc1` [Example 202]: the EC50 in the assay on THP-1 cells was 0.66 µM; at TLR7, over 100 µM; at TLR8, over 100 µM.

With `CC(C)(F)C(=O)NCCn1cc2c(N)nc3cc(-c4cc[nH]n4)ccc3c2n1` [Example 203], the EC50 in the assay with THP-1 cells is 3.49 µM; at TLR7, over 100 µM; on TLR8 it was over 100 µM.

In the case of `Nc1nc2cc(-c3cc[nH]n3)ccc2c2nn(CCNC(=O)c3cccnc3)cc12` [Example 204], the figures for the EC50 in the assay with THP-1 cells, at TLR7 and at TLR8 were 2.6 µM, over 100 µM and over 100 µM, respectively.

As to `Nc1nc2cc(-c3cc[nH]n3)ccc2c2nn(CCN3Cc4ccc(F)cc4C3=O)cc12` [Example 205, 2-(2-(4-amino-7-(1H-pyrazol-3-yl)-2H-pyrazolo[4,3-c]quinolin-2-yl)ethyl)-6-fluoroisoindolin-1-one], the concentration giving a half-maximal response (EC50) was 2.04 µM with THP-1 cells, over 100 µM at TLR7 and over 100 µM at TLR8.
